Assay results reported in patent US20030220267A1, “Borinic acid protease inhibitors” (priority 2001, published 2003).
pKi: −log10 of the molar value. Read-outs that look alike come from different tables or passages of the source.

What was measured:
chymotrypsin = chymotrypsin (Bos taurus, UniProt P00766); details: pH 7.5; cited from earlier work
HIV-1 protease = target: T1, HIV-1 protease (Human immunodeficiency virus type 1 group M subtype B, UniProt P04585); assay: HIV-1 protease inhibition; type: biochemical, Human immunodeficiency virus 1; details: models such as those described by Pivazyan et al., Biochem. Pharma, 2000, 60, 927
T1 construct: Teach monomer is formed by 99 residues organized in β strands
Excerpt: The ability of a compound of the invention to act as an inhibitor of HIV-1 protease may be determined using pharmacological models which are well known to the art, such as tnose described by A. D. Pivazyan et al., Biochem. Pharma, 2000, 60, 927.

[1] = Excerpt: Furthermore, we attempted to separate the crude product on HPLC using a C18 reverse phase column and water/acetonitrile as the solvent. […] Using trifluoroacetic acid as part of the solvent mixture will acidify the media and might prevent decomposition.

Row | Compound | pKi (chymotrypsin) | inhibition of HIV-1 protease (HIV-1 protease) | stability under HPLC conditions ([1]; C18 reverse phase column, water/acetonitrile, gradient separation, crude product) | stability in buffer solution ([1]; acidic and neutral media) | stability in buffer solution ([1]; basic conditions)
1 | CC(=O)N[C@@H](Cc1ccccc1)B(O)O | 5.68 | – | – | – | –
2 | CC(=O)N[C@@H](Cc1ccccc1)B(O)CN1CCC[C@H]1C(N)=O [Compound I24, [(1R)-(1-Acetamido-2-phenylethyl)]-B-methylene-L-proline amide borinic acid] | – | inhibitors of HIV-1 protease | unstable | stable | quickly decomposes
3 | [(1R)-1-(Ac-Thr-Leu-Asn)-2-phenylethyl]-B-methylene-L-proline amide borinic acid [Compound I28b] | – | inhibitors of HIV-1 protease | – | – | –
4 | [( 1R)-1-(Ac-Ser-Leu-Asn)-2-phenylethyl]-B-methylene-L-proline amide borinic acid [Compound I28a] | – | inhibitors of HIV-1 protease | – | – | –
